Experimental data published in patent publication US4160839A, “Carbamyltriazole insecticides” (priority 1976, dated 1979).

Assays:
[1] = system: Mexican bean beetle (MBB) larvae; assay: Spray test, Mexican bean beetle (MBB) larvae on bean leaves; type: in vivo; conditions: approx. 48 h after spraying
Method: (§1) Three 5 oz paper cups containing Henderson dwarf lima bean plants and one 5 oz paper cup containing Orange Gem nasturtiums, all growing in vermiculite, are placed on a turntable and sprayed to thorough wetness with 25 ml of a solution of the candidate chemical at the appropriate concentration. Nasturtiums were already infested with 50-100 bean aphids (BA). A bean plant in one paper cup was already infested with 50-100 two-spotted mites (TSM). Leaves from the two remaining bean plants are removed following spraying and placed in disposable petri dishes with 5 southern armyworm (SA) larvae in one petri dish, and 5 Mexican bean beetle (MBB) larvae in the other petri dish. The rating is done approximately 48 hours after spraying as follows:
(§2) So as to obtain more meaningful results, all tests are performed at the same time of day, whenever possible, usually in the forenoon. Temperature,illumination and humidity are the same in all tests. Atmospheric pressure is not controlled.
(§3) Results obtained with the novel insecticides of this invention at various concentrations of active chemical are tabulated below. The ratings given are for averages of three or more replicates. The oral lethal dose for 50 percent kill of laboratory rats is also recorded in the table. In conducting the toxicity tests on rats, 0.01 g of active chemical per ml in corn oil is employed as an additive to the diet of the animals.

[2] = system: southern armyworm (SA) larvae; assay: Spray test, southern armyworm (SA) larvae on bean leaves; type: in vivo; conditions: approx. 48 h after spraying
Method: as §1, §2, §3

bean aphids (BA) = assay: Spray test, bean aphids (BA) on nasturtiums; type: in vivo; conditions: approx. 48 h after spraying
Method: as §1, §2, §3

[3] = system: Southern Corn Rootworm (SCR); assay: Southern Corn Rootworm (SCR) soil treatment test, root feeding damage on corn; type: in vivo; set-up: scale not given here; conditions: nine days after treatment
Method: Three 5 oz paper cups planted each with one kernel of DeKalb XL-361 corn are treated two days after planting with 10 ml of a 125 ppm solution of the candidate compound. Compounds with high efficacy are treated at lower concentrations. The experiment is a 4×5 factorial in a randomized complete block design with three replications. The tests are evaluated nine days after treatment. The roots are inspected under a dissecting microscope and rated as follows:
as §2, §3

two-spotted mites (TSM) = assay: Spray test, two-spotted mites (TSM) on bean plants; type: in vivo; conditions: approx. 48 h after spraying
Method: as §1, §2, §3

[4] = Oral toxicity test on laboratory rats; conditions: rat, in vivo, in corn oil as additive to the diet, read-out: LD50 (oral lethal dose for 50 percent kill of laboratory rats)
Method: as §3

insects = assay: Insecticidal activity (general statement); conditions: statement in words

SMILES | MBB rating (larvae dead) ([1]; 15 ppm) | MBB rating (larvae dead) ([1]; 31 ppm) | MBB rating (larvae dead) ([1]; 62 ppm) | MBB rating (larvae dead) ([1]; 125 ppm) | MBB rating (larvae dead) ([1]; 250 ppm) | MBB rating (larvae dead) ([1]; 500 ppm) | SA rating (larvae dead) ([2]; 500 ppm) | BA rating (dead) (bean aphids (BA); 2 ppm) | BA rating (dead) (bean aphids (BA); 4 ppm) | BA rating (dead) (bean aphids (BA); 8 ppm) | BA rating (dead) (bean aphids (BA); 15 ppm) | BA rating (dead) (bean aphids (BA); 31 ppm) | BA rating (dead) (bean aphids (BA); 62 ppm) | BA rating (dead) (bean aphids (BA); 125 ppm) | BA rating (dead) (bean aphids (BA); 250 ppm) | BA rating (dead) (bean aphids (BA); 500 ppm) | SCR Rating (root feeding damage) ([3]; 25 ppm) | TSM rating (dead adults) (two-spotted mites (TSM); 500 ppm) | LD50 [4] | SA rating (larvae dead) ([2]; 15 ppm) | also measured
C=CCSc1nc(C(C)(C)C)nn1C(=O)N(C)C [R=2-propenyl (allyl), R'=tert.butyl, 1-Dimethylcarbamyl-3-tert.butyl-5-allylthio-1H-1,2,4-triazole] | 0 (no larvae dead) | 0 (no larvae dead) | 1 (1 -25% larvae dead) | 5 (100% larvae dead) | 5 (100% larvae dead) | 5 (100% larvae dead) | 1 (1-25% larvae dead) | 2 (26-50% dead) | 3 (51-75% dead) | 4 (76-99% dead) | 5 (100% dead) | 5 (100% dead) | 5 (100% dead) | 5 (100% dead) | 5 (100% dead) | 5 (100% dead) | 2.5 | 0 (no dead adults) | 17 mg/kg |  | 
C#CCSc1nc(C2CCCCC2)nn1C(=O)N(C)C [1-N,N-dimethylcarbamyl-3-cyclohexyl-5-propargylthio-1,2,4-triazole] |  |  |  |  |  |  |  |  |  |  |  |  |  |  |  |  |  |  |  |  | insecticidal activity (insects): virtually useless as insecticides
C#CCSc1nc(C2CC2)nn1C(=O)N(C)C [R=2-propynyl (propargyl), R'=cyclopropyl] | 1 (1 -25% larvae dead) | 1 (1 -25% larvae dead) | 3 (51-75% larvae dead) | 5 (100% larvae dead) | 5 (100% larvae dead) | 5 (100% larvae dead) | 5 (100% larvae dead) | 1 (1-25% dead) | 3 (51-75% dead) | 5 (100% dead) | 5 (100% dead) | 5 (100% dead) | 5 (100% dead) | 5 (100% dead) | 5 (100% dead) | 5 (100% dead) | 1.3 | 5 (100% dead adults) | 10 mg/kg | 0 (no larvae dead) | SA rating (larvae dead) ([2]; 31 ppm): 0 (no larvae dead); SA rating (larvae dead) ([2]; 62 ppm): 0 (no larvae dead); SA rating (larvae dead) ([2]; 125 ppm): 2 (26-50% larvae dead); SA rating (larvae dead) ([2]; 250 ppm): 4 (76-99% larvae dead); SCR Rating (root feeding damage) ([3]; 50 ppm): 4.3; SCR Rating (root feeding damage) ([3]; 100 ppm): 4.3; TSM rating (dead adults) (two-spotted mites (TSM); 15 ppm): 0 (no dead adults); TSM rating (dead adults) (two-spotted mites (TSM); 31 ppm): 0 (no dead adults); TSM rating (dead adults) (two-spotted mites (TSM); 62 ppm): 2 (26-50% dead adults); TSM rating (dead adults) (two-spotted mites (TSM); 125 ppm): 4 (76-99% dead adults); TSM rating (dead adults) (two-spotted mites (TSM); 250 ppm): 4 (76-99% dead adults)
C#CCSc1nc(C(C)(C)C)nn1C(=O)N(C)C [R=2-propynyl, R'=tert.butyl] | 4 (76-99% larvae dead) | 5 (100% larvae dead) | 5 (100% larvae dead) | 5 (100% larvae dead) | 5 (100% larvae dead) | 5 (100% larvae dead) | 5 (100% larvae dead) |  | 5 (100% dead) | 5 (100% dead) | 5 (100% dead) | 5 (100% dead) | 5 (100% dead) | 5 (100% dead) | 5 (100% dead) | 5 (100% dead) |  | 1 (1-25% dead adults) | > 50 mg/kg | 0 (no larvae dead) | MBB rating (larvae dead) ([1]; 4 ppm): 0 (no larvae dead); MBB rating (larvae dead) ([1]; 8 ppm): 0 (no larvae dead); SA rating (larvae dead) ([2]; 31 ppm): 0 (no larvae dead); SA rating (larvae dead) ([2]; 62 ppm): 0 (no larvae dead); SA rating (larvae dead) ([2]; 125 ppm): 2 (26-50% larvae dead); SA rating (larvae dead) ([2]; 250 ppm): 5 (100% larvae dead); SCR Rating (root feeding damage) ([3]; 6 ppm): 3.5; SCR Rating (root feeding damage) ([3]; 12 ppm): 4.5
C#CCSc1nc(C(C)C)nn1C(=O)N(C)C [R=2-propynyl, R'=isopropyl] | 0 (no larvae dead) | 4 (76-99% larvae dead) | 5 (100% larvae dead) | 5 (100% larvae dead) | 5 (100% larvae dead) | 5 (100% larvae dead) | 5 (100% larvae dead) | 0 (none dead) | 3 (51-75% dead) |  | 5 (100% dead) | 5 (100% dead) |  | 5 (100% dead) | 5 (100% dead) | 5 (100% dead) | 1.3 | 0 (no dead adults) | ~50 mg/kg | 0 (no larvae dead) | SA rating (larvae dead) ([2]; 31 ppm): 0 (no larvae dead); SA rating (larvae dead) ([2]; 62 ppm): 0 (no larvae dead); SA rating (larvae dead) ([2]; 125 ppm): 3 (51-75% larvae dead); SA rating (larvae dead) ([2]; 250 ppm): 5 (100% larvae dead); SCR Rating (root feeding damage) ([3]; 12 ppm): 0.3; SCR Rating (root feeding damage) ([3]; 50 ppm): 2.7
